Seven compounds from ChEMBL document CHEMBL1201862, “PubChem BioAssay data set” (2004) can be followed below.

Test systems include NCI-H460; HOP-62; HOP-92; RXF 393; UO-31; LOX IMVI; U-251; CCRF-CEM; TK-10; OVCAR-8; CAKI-1; M14; RPMI-8226; NCI-H226; SN12C; OVCAR-3; IGROV-1; A549; HCT-15; SR.
Common to all, as to assay: inhibition of tumour cell growth, NCI panel, 48 h

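Method: 48-hour compound exposure of cells in 96-well plates, five concentrations, linear interpolation of endpoints. Here, GI50 denotes the concentration required for 50% inhibition of growth.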 Activity calls are given as the source filed them. Cut-off read from the data, not from the text of the source: active = GI50 up to about 1.1 µM and inactive = higher.

Turning to `CC/C=C(\C(=C/CC)[N+](=O)[O-])[N+](=O)[O-]`, the GI50 in the assay with NCI-H460 is 18 µM (inactive); in the assay with HOP-62, 58.2 µM (inactive); with HOP-92, 23.7 µM (inactive); in the assay on RXF 393, 14.9 µM (inactive); in the assay with UO-31, 18.9 µM (inactive); in the assay on LOX IMVI, 17.5 µM (inactive). For the same compound, the GI50 is 17.7 µM (inactive) with U-251; 8.22 µM (inactive) in the assay with CCRF-CEM; 18.1 µM (inactive) in the assay with TK-10; 21.4 µM (inactive) in the assay with OVCAR-8; 23.2 µM (inactive) in the assay on CAKI-1; 13.4 µM (inactive) in the assay with M14. Further, the GI50 with RPMI-8226 was 24.1 µM (inactive); in the assay with NCI-H226 it was 95.5 µM (inactive); in the assay with SN12C it was 18.9 µM (inactive); in the assay on OVCAR-3 it was 16.1 µM (inactive); in the assay on IGROV-1, 17.6 µM (inactive); with A549, 74.6 µM (inactive).

Turning to `O=c1cnn(C/C=C\CO)c(=O)[nH]1`, the GI50 in the assay with NCI-H460, in the assay with HOP-62, with HOP-92, in the assay with RXF 393, in the assay with UO-31 and in the assay on LOX IMVI was > 100 µM (inactive) throughout. The GI50 is > 100 µM (inactive) in the assay with U-251; > 100 µM (inactive) in the assay with CCRF-CEM; greater than 100 µM in the assay with HCT-15; 75.2 µM (inactive) in the assay with TK-10; > 100 µM (inactive) in the assay with OVCAR-8; > 100 µM (inactive) with CAKI-1. Moreover, the GI50 in the assay on M14, in the assay with RPMI-8226, in the assay with NCI-H226, in the assay on SN12C, in the assay on SR and in the assay with OVCAR-3 was > 100 µM (inactive) throughout. Besides, the GI50 in the assay on IGROV-1 and with A549 was > 100 µM (inactive) each time.

As for `NCCCCNCCCNC(=O)c1nc(-c2nc(CCN)sc2Cl)sc1Cl`, the GI50 in the assay on NCI-H460 was 27.7 µM (inactive); in the assay with HOP-62 it was 59.7 µM (inactive); in the assay with HOP-92 it was > 100 µM (inactive); with RXF 393, 12.4 µM (inactive); with UO-31 it was > 100 µM (inactive); in the assay with U-251, > 100 µM (inactive). The GI50 with CCRF-CEM was 89.5 µM (inactive); in the assay on HCT-15 it was greater than 100 µM; in the assay on TK-10 it was > 100 µM (inactive); with OVCAR-8 it was > 100 µM (inactive); in the assay on CAKI-1, > 100 µM (inactive); with M14, 70.1 µM (inactive). The GI50 in the assay with RPMI-8226 was 31.3 µM (inactive); with NCI-H226, > 100 µM (inactive); in the assay on SN12C, > 100 µM (inactive); with SR, 6.87 µM (inactive); in the assay with OVCAR-3, > 100 µM (inactive); in the assay with IGROV-1, > 100 µM (inactive). Moreover, the GI50 with A549 was 44.5 µM (inactive).

Turning to `CSCCC(NC(=O)OCc1ccccc1)NC(=O)OCc1ccccc1`, the GI50 with NCI-H460, in the assay with HOP-62, with HOP-92, with UO-31, in the assay on LOX IMVI and with U-251 was > 100 µM (inactive) each time. Moreover, the GI50 in the assay with CCRF-CEM was > 10 µM (inactive); with HCT-15 it was greater than 100 µM; in the assay on TK-10 it was > 100 µM (inactive); in the assay on OVCAR-8 it was > 100 µM (inactive); with CAKI-1, > 100 µM (inactive); in the assay with M14, > 100 µM (inactive). The GI50 in the assay on RPMI-8226, with NCI-H226, in the assay on SN12C, in the assay on SR, in the assay with OVCAR-3 and in the assay with IGROV-1 was > 100 µM (inactive) throughout. In the assay on A549, the GI50 was > 100 µM (inactive).

For the compound `CCCc1[nH]c(SCCCCCCCCSc2nc(-c3ccc(F)cc3)c(CCC)[nH]2)nc1-c1ccc(F)cc1`, the GI50 with NCI-H460 is 35.2 µM (inactive); with HOP-62 it was 15.2 µM (inactive); with HOP-92 it was 3.8 µM (inactive); with RXF 393, 27.4 µM (inactive); with UO-31, 6.11 µM (inactive); in the assay on LOX IMVI it was 10.3 µM (inactive). Moreover, the GI50 in the assay on U-251 is 18.7 µM (inactive); with CCRF-CEM, 6.59 µM (inactive); in the assay with HCT-15, 7 µM; in the assay with TK-10, 17.7 µM (inactive); in the assay on OVCAR-8, 9.84 µM (inactive); with M14 it was 17.3 µM (inactive). Moreover, the GI50 was 1.98 µM (inactive) in the assay on RPMI-8226; 9.42 µM (inactive) with SN12C; 7.08 µM (inactive) in the assay with SR; 1.94 µM (inactive) in the assay on OVCAR-3; 37.7 µM (inactive) in the assay on IGROV-1; 11.3 µM (inactive) with A549.

For the compound `COc1cc(C=O)cc(/C=N/c2ccc(S(N)(=O)=O)cc2)c1O`, the GI50 with NCI-H460 is 26.2 µM (inactive); in the assay on HOP-62, 13.5 µM (inactive); in the assay with HOP-92, 2.86 µM (inactive); with RXF 393 it was 3.99 µM (inactive); in the assay on UO-31, 5.51 µM (inactive); with LOX IMVI it was 10.9 µM (inactive). Further, the GI50 was 5.36 µM (inactive) with U-251; 9.77 µM (inactive) in the assay with CCRF-CEM; 63.1 µM in the assay on HCT-15; 31.7 µM (inactive) in the assay with TK-10; 6.21 µM (inactive) with OVCAR-8; 7.38 µM (inactive) in the assay with CAKI-1. Also, the GI50 was 3.92 µM (inactive) in the assay on M14; 7.13 µM (inactive) in the assay with RPMI-8226; 4.3 µM (inactive) with NCI-H226; 6.65 µM (inactive) in the assay with SN12C; 6.11 µM (inactive) in the assay on SR; 26.1 µM (inactive) in the assay on OVCAR-3. The GI50 is > 100 µM (inactive) in the assay with IGROV-1 and 44.1 µM (inactive) in the assay on A549.

For the compound `CCCCCCOP(=O)(OCCCCCC)C(NC(=O)OCC)(C(F)(F)F)C(F)(F)F`, the GI50 was 30.3 µM (inactive) in the assay with NCI-H460; > 100 µM (inactive) in the assay with HOP-62; 28.4 µM (inactive) in the assay on HOP-92; 11.7 µM (inactive) in the assay with RXF 393; 28.6 µM (inactive) in the assay on UO-31; 24.6 µM (inactive) in the assay on LOX IMVI. The GI50 with U-251 was 36.8 µM (inactive); with CCRF-CEM, 42.1 µM (inactive); with HCT-15, 30.4 µM; in the assay with TK-10, 43.7 µM (inactive); in the assay with OVCAR-8, 36.1 µM (inactive); in the assay on CAKI-1, 51.6 µM (inactive). Moreover, the GI50 in the assay with M14 is 32 µM (inactive); with RPMI-8226, > 100 µM (inactive); in the assay with NCI-H226 it was 24.9 µM (inactive); in the assay on SN12C it was 34 µM (inactive); in the assay on SR it was 50.8 µM (inactive); in the assay with OVCAR-3, 45.1 µM (inactive). The GI50 in the assay on IGROV-1 was 34 µM (inactive); with A549, 36.9 µM (inactive).
